Assay results taken from PMC11329928, “Design, synthesis and structure-activity relationship (SAR) studies of an unusual class of non-cationic fatty amine-tripeptide conjugates as novel synthetic antimicrobial agents” (Frontiers in Pharmacology, 2024).
Where a name gives a salt, the structure may show the parent alone.

Key:
Escherichia coli DH10B = experiment: Resting-cell viability (CFU) with 0.5 mM EDTA; assay type: cell-based; parameters: key to CFU's decay in the presence of 0.5 mM EDTA, Ec (data in parenthesis): (+) CFU, decay ∼1 log-unit; (−) ≤ 0.3 log-units; details: for Decrease in bacterial viability compared to controls in EDTA-containing buffer, E. coli: 100 µM, 20 mM Tris-HCl pH 7.5, 3 h, 37°C; for CFU's decay in the presence of 0.5 mM EDTA, Ec (data in parenthesis): E. coli DH10B, 100 µM compound, 3 h incubation
Experimental: Addition of tested compounds to the culture medium had little or no effect on bacterial growth, even at a concentration of 100 μM (Table 1). Since inactivity could arise from the inability of DICAMs to cross the outer membrane, we next tested their effect on bacterial suspensions in the absence or the presence of 0.5 mM EDTA, an outer membrane permeating agent. A decrease of approximately 90% in bacterial viability was observed after 3 h treatment with DICAM 2 and DICAM 4, compared to controls in EDTA-containing buffer (Supplementary Figure S5). No variations were found with the other compounds tested (Table 1), showing that only DICAMs containing Ala/Asn- Pro -Glu tripeptides were able to access the cell membrane and kill these pathogens when the outer membrane permeability was enhanced.
For activity assays on resting cells, bacteria grown to exponential phase (OD600 ≈ 0.3) were centrifuged and washed with 20 mM Tris-HCl (pH 7.5), adjusting the final OD600 to ≈0.6 (≈10^8 CFU/mL) with the same buffer. If required, EDTA (0.5 mM final concentration) was next added and the bacterial suspension was dispensed (225 µL per well) in 96-well plates, and then treated with 100 µM DICAM (25 µL). Samples were incubated at 37°C for 3 h and turbidity measurements were taken at selected intervals, also measuring the decay in cell viability at the end of incubation. Controls with buffer (with and without 1% DMSO), 100 µM DICAM, or 0.5 mM EDTA were run in parallel.

[1] = system: S. pneumoniae R6 biofilms; experiment: Killing of preformed biofilms; assay type: cell-based, Streptococcus pneumoniae; details: S. pneumoniae R6 biofilm, 1 h, 37°C, plating on blood agar
Experimental: Biofilms were prepared as described ([Domenech and García, 2020]). Briefly, S. pneumoniae R6 cells in late exponential growth (OD550 ≈ 0.6; C + Y medium) were pelleted by centrifugation, resuspended in an equal volume of fresh medium, diluted 1/100 (4.5 × 10^6 CFU/mL), and then dispensed (200 µL per well) in 96-well flat-bottom polystyrene plates (Costar 3,595; Corning; Spain). After plate incubation at 34°C for 4.5 h without shaking, bacterial growth (non-adherent cells plus biofilm-forming cells) was determined by measuring the OD550 using a VersaMax microplate absorbance reader. The supernatant (non-adherent cells) was replaced by 200 μL of DICAM 4 (150, 300 or 600 µM) prepared by dilution in sterile water and plate incubation was continued for 1 h at 37°C. Plates were then washed and the biofilms disaggregated in sterile water for viable cell determination in Mueller-Hinton blood agar plates after overnight incubation at 37°C. For the observation of biofilms by CLSM, bacteria were grown on glass-bottomed dishes (WillCo-dish; WillCo Wells, Netherlands) and treated as above, plating 2 mL of the final inoculum per disc and then adding 0.5 mL of DICAM solution. […] Laser intensity and gain were kept the same for all images and they were analyzed using LCS software from Leica. […]

[2] = system: A549, IMR-90 and HeLa cells; details: 48 h
Experimental: DICAM’s cytotoxicity was determined employing a modified MTT assay as described elsewhere ([Antúnez-Mojica et al., 2016]) using human lung carcinoma epithelial cells A549, human fetal lung fibroblasts IMR-90, and human HeLa cervix carcinoma cells treated with increasing concentrations of DICAMs (0.8–200 µM range). A549 cells were grown in RPMI 1640 (Gibco; Fisher Scientific, Spain) supplemented with 10% FCS, 2 mM glutamine, 100 IU/mL penicillin and 100 μg/mL streptomycin. IMR-90 and HeLa cells were cultured in DMEM (Gibco; Fisher Scientific, Spain) supplemented with 10% FCS, 2 mM L-glutamine, 1 mM pyruvate, 100 IU/L penicillin, 100 μg/mL streptomycin and 40 μg/mL gentamycin. Cell viability was assessed after 48 h exposure to DICAMs. Vinblastine was used as a positive control. IC50 value is the concentration that gives 50% inhibition of cell growth and was determined using SigmaPlot (Systat) fitting to a Four Parameter Logistic curve.

S. pyogenes T membrane = experiment: Membrane depolarization, DiSC3(5); assay type: cell-based, Streptococcus pyogenes; details: S. pyogenes T in BHI, OD550 ≈ 0.2, DiSC3(5) 1 µM, 37°C
Experimental: Permeation and depolarization of S. pyogenes ^T membrane by DICAMs were assayed with the fluorescent probes SYTOX Green and DiSC3(5), respectively, in a Varioskan Flash microplate reader (Thermo Scientific; Spain) using FluoroNunc 96-well plates (Thermo Scientific; Spain). For permeation assays, cells were grown to an OD550 ≈ 0.3, washed once with PBS pH 7.2 (3,800 × g, 7 min, room temperature), and adjusted to a final OD550 ≈ 0.4 (∼10^8 CFU/mL) with the same buffer before mixing in the dark with SYTOX Green (5 µM final concentration). One hundred µL of this suspension was dispensed per plate well and the signal stabilization was monitored for 15 min (λex = 485 nm; λem = 520 nm). Then, 100 µL of two-fold serially diluted lipopeptide samples was added and changes in fluorescence intensity were registered for 60 min at 37°C. SYTOX Green (900 Da) binds to intracellular DNA when the cell membrane is damaged, thereby increasing fluorescence intensity ([Roth et al., 1997]). Positive controls (100% membrane permeabilization) were carried out by adding Titron X-100 (0.01% final concentration) to untreated bacterial samples ([Rathinakumar et al., 2009]). For membrane depolarization assays, 180 µL of an OD550 ≈ 0.2 culture (BHI; ≈ 10^7 CFU/mL) supplemented with DiSC3(5) (1 µM final concentration) was distributed per well, and signal stabilization was registered for 30 min (λex = 622 nm; λem = 670 nm) ([Te Winkel et al., 2016]). Subsequently, 20 µL of a two-fold serial dilution of lipopeptide in culture medium was added, and fluorescence intensity was recorded for 60 min at 37°C. Partition of DiSC3(5) to the surface of polarized cells decreases the probe fluorescence, and its release, caused by membrane depolarization, results in an increase in fluorescence. […] The background signal of controls with bacterial cells without the fluorescent probe, as well as the dye fluorescence in the presence of the tested compounds without bacteria, were also registered. No change in the fluorescence intensity of the probes occurred upon DICAM addition in the absence of bacterial cells.

| SMILES | Decrease in bacterial viability compared to controls in EDTA-containing buffer, E. coli (Escherichia coli DH10B) | CFU's decay in the presence of 0.5 mM EDTA, Ec (data in parenthesis) (Escherichia coli DH10B) | Cells killed in preformed biofilms at 300 μM [1] | IC50 [2] | Time for dissipation of the transmembrane potential (S. pyogenes T membrane) |
| --- | --- | --- | --- | --- | --- |
| CCCCCCCCCCCCCCCCCCNC(=O)[C@H](CCC(=O)O)NC(=O)[C@H]1CCCN1C(=O)[C@H](C)N [DICAM 4, Ala- Pro -Glu-NH-C18H37 ·HCl] | approximately 90% | (+) | ~90% | – | – |
| CCCCCCCCCCCCCCCCCCNC(=O)[C@H](CCC(=O)O)NC(=O)[C@H]1CCCN1C(=O)[C@@H](N)CC(N)=O [DICAM 2, Asn- Pro -Glu-NH-C18H37 ·HCl] | approximately 90% | (+) | – | – | – |
| CCCCCCCCCCCCCCCCCCNC(=O)[C@H](C)NC(=O)[C@H]1CCCN1C(=O)[C@H](C)N [DICAM 14, Ala- Pro -Ala-NH-C18H37 · HCl] | – | (−) ((−) ≤ 0.3 log-units) | – | 7.3 µM | – |
| CCCCCCCCCCCCCCCCCCNC(=O)[C@H](CCC(=O)O)NC(=O)[C@H]1CCCN1C(=O)[C@H](C)NC(=O)OCc1ccccc1 [DICAM 3, Cbz-Ala- Pro -Glu-NH-C18H37] | – | (−) ((−) ≤ 0.3 log-units) | – | – | 5 to 10 min |
| CCCCCCCCCCCCCCCCCCNC(=O)[C@H](CCC(=O)O)NC(=O)[C@H]1CCCN1C(=O)[C@H](C)NC(C)=O [DICAM 24, Ac-Ala- Pro -Glu-NH-C18H37] | – | (−) ((−) ≤ 0.3 log-units) | – | – | – |
| CCCCCCCCCCCCCCCCCCNC(=O)[C@H](CCC(=O)O)NC(=O)[C@H]1CCCN1C(=O)[C@H](CCC(=O)O)NC(=O)OCc1ccccc1 [DICAM 19, Cbz-Glu- Pro -Glu-NH-C18H37] | – | – | – | – | 5 to 10 min |
